Reference: patent publication US20240279226A1, “ERGOLINE-DERIVED AGONISTS OF THE 5-HT2A RECEPTOR” (priority 2021, published 2024)

Tests used:
[1] = molecular target: 5-HT2A receptor (Homo sapiens (Human), UniProt P28223); test: biochemical; format: binding; details: radioligand [3H]-ketanserin, cell membrane, 27° C. 90 min
Description: Compound binding was calculated as a % inhibition of the binding of a radioactively labeled ligand specific for each receptor. Results with inhibition >50% were considered to represent significant effects. In each experiment, the respective reference compound was tested in parallel with the test compounds, and the data were compared with previous values determined at Eurofins.
Bovine Serum Albumin (BSA), calcium chloride (CaCl2)), and polyethylenimine, branched (PEI) were purchased from Sigma. Tris(hydroxymethl)aminomethane (Tris) was purchased from Alfa Aesar.
Microbeta^2 microplate counter, MicroBeta Filtermate-96, and UniFilter-96 GF/C were purchased from PerkinElmer. TopSeal was purchased from Biotss. Seven Compact pH meter was purchased from Mettler Toledo. Ultrapure water meter was purchased from Sichuan Ulupure. Benchtop Centrifuge was purchased from Hunan Xiangyi. Microplate shaker was purchased from Allsheng. 384-Well Polypropylene Microplate was purchased from Labcyte. 96 round well plate was purchased from Corning. 96 round deep well plate was purchased from Axygen. Echo was purchased from LABCYTE. • 1. Prepare the assay buffer following the table below:
• 2. […] Read the plate by using a Microbeta^2 microplate counter.
• 11. […] The IC50 is determined by fitting percentage of inhibition function of compound concentrations with Hill equation using XLfit.

[2] = molecular target: 5-HT2C receptor (Homo sapiens (Human), UniProt P28335); test: biochemical; format: binding; details: radioligand [3H]-Mesulergine, cell membrane, 27° C. 60 min
Chain of 5-HT2C receptor (P28335 33-458 limits assumed): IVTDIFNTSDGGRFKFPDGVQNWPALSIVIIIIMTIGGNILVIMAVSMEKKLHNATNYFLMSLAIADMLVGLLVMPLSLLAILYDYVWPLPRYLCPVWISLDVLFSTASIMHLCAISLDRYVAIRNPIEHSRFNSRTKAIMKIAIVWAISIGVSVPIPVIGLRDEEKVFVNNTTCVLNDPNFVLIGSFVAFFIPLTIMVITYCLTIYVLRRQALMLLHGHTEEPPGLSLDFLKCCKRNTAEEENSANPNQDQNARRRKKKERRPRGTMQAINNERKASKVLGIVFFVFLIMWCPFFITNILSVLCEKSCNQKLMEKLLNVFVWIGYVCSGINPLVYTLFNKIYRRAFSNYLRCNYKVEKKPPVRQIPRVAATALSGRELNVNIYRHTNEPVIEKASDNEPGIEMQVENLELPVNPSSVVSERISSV

[2H]C([2H])([2H])N1C[C@@H](NC(=O)N(CC)OC)C=C2c3cccc4[nH]cc(c34)C[C@H]21 [Example 6a, 1-ethyl-1-methoxy-3-((6aR,9S)-7-(methyl-d3)-4,6,6a,7,8,9-hexahydroindolo[4,3-fg]quinolin-9-yl)urea]
IC50 [1]: 2.6 nM | IC50 [2]: 96 nM

[2H]C([2H])([2H])N1C[C@H](NC(=O)N(CC)OC)C=C2c3cccc4[nH]cc(c34)C[C@H]21 [Example 6b, 1-ethyl-1-methoxy-3-((6aR,9R)-7-(methyl-d3)-4,6,6a,7,8,9-hexahydroindolo[4,3-fg]quinolin-9-yl) urea]
IC50 [1]: 6.5 nM | IC50 [2]: 312 nM
